Measurements: US9193986B2, “Method for marking or immobilising a target structure” (Fraunhofer-Gesellschaft Zur Forderung Der Angewandten …, priority 2012, dated 2015)
Non-standard residues stand in square brackets, D forms with d. Residues, ends and D or L forms follow the SMILES beside them. No end group written: not given here. *: point of attachment. FITC = O=C1OC2(c3ccc(O)cc3Oc3cc(O)ccc32)c2ccc(NC(=S)*)cc21; Dopa = N[CH](Cc1ccc(O)c(O)c1)C(=O)O; X1 = O=C1NC2CSC(CCCCC(=O)*)C2N1

Legend:
[1] = tested on: integrin αvβ6 expressing cells (HT1299, SVEC); test: Marking of integrin αvβ6 expressing cells with DOPA/FITC polypeptide, with and without laccase, FACS fluorescence after washing; format: cell-based; settings: 5 μM polypeptide, without addition of laccase, washed three times with PBS, FIG. 1
Description: Marking of integrin αvβ6 expressing cells:
Cell type: Cell lines HT1299 (lung tumor), HUVEC, SVEC
Polypeptide for the marking: Ac-SPRGDLAVLGHK(FITC)GG-DOPA-G, SEQ ID NO: 1
Polypeptide solution: 4 mg/ml polypeptide in water corresponding to 2 mM
20 mg/ml laccase from Trameters versicolor, 20 U/mg, ASA Spezialenzyme GmbH, Wolfenbüttel
All FAC measurements were made on a Cytomics FC500 (Beckman Coulter).
(§1) The cells were in each case washed twice with PBS and then taken up in an amount of ca. 10^5 cells/ml in PBS. 950 μl portions of the solution were added to 1-ml-FACS-test tubes. Marked polypeptides with and without prior treatment with laccase, were then added according to the following Table 1.
(§2) For this, 40 μl NaAc solution, 105 μl water, 15 μl peptide solution and 120 μl laccase were added in a typical […] polypeptide batch. Samples without laccase contained the corresponding additional volume of water, samples with other polypeptide concentrations contained correspondingly more polypeptide solution (cf. Example 2). After an incubation time of 1 minute 50 μl were added in each case to the cell suspensions or placed in the FACS test tubes.
(§3) After an incubation time of at least 15 minutes the cells were washed three times with 2 ml PBS in the test tube and the fluorescence of the cells was then measured on a cell sorter. The total fluorescence of the cells was measured.

[2] = tested on: cell lines expressing αvβ6 integrin (HUVEC, SVEC, HT1299); test: Dependence of the binding on the polypeptide concentration (laccase-activated marking, FACS); format: cell-based; settings: different concentrations, FIG. 2
Description: as §1, §2, §3
Corresponding to the above experimental procedure (Example 1) various cell lines, all of which express αvβ6 integrin, were marked with different polypeptide concentrations.

[3] = target: Albumen lysozyme (Gallus gallus, UniProt P00698); test: Laccase-mediated coupling of structures with DOPA residue to a protein, MS analysis; format: biochemical; settings: for formation of covalent adduct with lysozyme: equimolar and ten-fold excess, laccase, overnight, room temperature, pH 7.0; for conversion of lysozyme to the adduct: excess of the DOPA compound (ten-fold), FIGS. 5 and 8
Description: The following solutions were prepared in 10 mM phosphate buffer pH 7.0: • a) Albumen lysozyme 1 mg/ml, corresponding to 70 μM (solution 1) • b) Compound A (biotin-DOPA) 1 mg in 3 mL, corresponding to 700 μM (solution 2) and a 70 μM dilution (solution 3) • c) Compound B (biotin-RGD-DOPA) 1,2 mg in 2 ml, corresponding to 700 μM (solution 4) and a 70 μM dilution (solution 5) • d) Laccase (Trametes vers., ASA Spezialenzyme GmbH) 1 mg/ml corresponding to 20 u/ml (solution 6)
The reaction was started by mixing 500 μl lysozyme solution (Solution 1) with in each case 500 μl of solution 2 to solution 5 (i.e. in each case equimolar and ten-fold excess) and addition and mixing in 10 μl/0.2 u laccase (solution 6). Lysozyme with 500 μl 10 mM phosphate buffer pH 7.0 and laccase (solution 6) was used as control. The samples were incubated overnight at room temperature and the next day an aliquot was freed from low molecular weight constituents and salts using a desalting column (Micro Bio-Spin P6, BioRad) equilibrated with deionised waters.
The thereby prepared reaction product was analysed in an AB Sciex TOF/TOF™ 5800 system.

Row | Compound | retention of the fluorescent polypeptide on the cells after washing [1] | binding to cells as a function of polypeptide concentration [2] | formation of covalent adduct with lysozyme [3] | conversion of lysozyme to the adduct [3]
1 | Ac-SPRGDLAVLGHK(FITC)GG-DOPA-G (Ac-SPRGDLAVLGHK(FITC)GG[Dopa]G) [polypeptide] | can be washed again from the cells | bind depending on the concentration |  | 
2 | N=C(N)NCCCC(NC(=O)CNC(=O)CCCCC1SCC2NC(=O)NC21)C(=O)NCC(=O)NC(CC(=O)O)C(=O)NC(Cc1ccc(O)c(O)c1)C(=O)NCC(=O)O (stereo not drawn) [Compound B, biotin-RGD-DOPA] (X1-GRGD[Dopa]G-OH; configuration not given here) |  |  | expected reaction products were found | a complete conversion was not achieved
3 | NC(=O)C(Cc1ccc(O)c(O)c1)NC(=O)CCCCC1SCC2NC(=O)NC21 (stereo not drawn) [Compound A] |  |  | expected reaction products were found | a complete conversion was not achieved
